{"source": "patent US20180303101A1", "about": "“METHOD OF IMPROVING GRASS QUALITY” (priority 2004, published 2018)", "tested_on": "creeping bentgrass (variety Penncross) turf", "assay": "Bentgrass color rating after foliar spray (Example 4)", "format": "in vivo", "conditions": "6 weeks after treatment; iprodione 4 oz/1000 sq. ft.; Pigment Green 7 6.8 or 13.6 g/1000 sq. ft. in combination, 13.6 g alone", "from_the_text": "Pigment Green 7 was suspended in water and applied as a foliar spray to creeping bentgrass (variety Penncross) turf with a pressurized sprayer at a spray volume of 1.37 gallons of water per 1000 sq. ft. (ca. 560 l/ha). Pigment Green 7 was applied at rates of 6.8, 13.9, and 20.4 grams per 1000 sq. ft. (0.73, 1.5, and 2.2 kg/ha, respectively). Each treatment was replicated 4 times. An untreated plot was included and was also replicated four times. The average color of the bentgrass was visually evaluated at 6 weeks after treatment. Color was evaluated on a qualitative scale from 1-9, with 9 being the highest quality and 1 the lowest quality.\nThe procedure of Example 2 was repeated using iprodione fungicide (in the form of 26 GT brand iprodione fungicide) at 4 oz/1000 sq. ft. (ca. 1.3 mL/m2), iprodione at 4 oz/1000 sq. ft. (ca. 1.3 mL/m2) plus Pigment Green 7 at 6.8 g/1000 sq. ft. (0.73 kg/ha), iprodione at 4 oz/1000 sq. ft. plus Pigment Green 7 at 13.6 g/1000 sq. ft. (1.5 kg/ha), and Pigment Green 7 at 13.6 g/1000 sq. ft. (1.5 kg/ha). At 6 weeks after treatment, the color ratings were as follows.", "data": [{"smiles": "CC(C)NC(=O)N1CC(=O)N(c2cc(Cl)cc(Cl)c2)C1=O", "note": "[iprodione, 3-(3,5-dichlorophenyl)-N-(l-methylethyl)-2,4-dioxo-1-imidazolidinecarbox-amide, reference compound]", "values": [{"measurement": "Color rating versus untreated check", "result": "not significantly different than the untreated check"}]}]}
